Measured values: patent US10647690B2, “2,3-epoxy succinyl derivative, preparation method and use thereof” (Institute of Pharmacology and Toxicology Academy of …, priority 2016, dated 2020)
Where two headings read alike, the source gives them in different places.

Columns and labels:
Format in all cases: biochemical
Cathepsin S = target: T1, Cathepsin S (Homo sapiens, UniProt P25774); test: IC50 determination against Cathepsin S (Biovision kit K149-100); conditions: CTSS
T1 construct: purchased Biovision K149-100
Protocol: (§1) 2. Method for determining IC50 of compounds against cathepsin:
IC50 of compounds against Cathepsin S was determined by using Cathepsin S Inhibitor Screening Kit (Product No. K149-100) from Biovision Company.
2.1.1.4 Preparation of Cathepsin S solution: Cathepsin S enzyme (46 μl) was added to Cathepsin S buffer (2254 μl), and mixed well, to prepare Cathepsin S enzyme solution with a volume of 2.3 ml, which was placed on ice for further use.
(§2) 2.1.2 Preparation of compound solutions: 30 mM and 10 mM compound stock solutions, and control compounds were gradiently diluted in DMSO at a ratio of 1:3, wherein the maximum dilution fold was 19683; the gradiently diluted compound solution (3 μl) was added to Cathepsin K, B, L, and S buffer (27 μl), respectively, and mixed well, wherein the control compounds (FF-FMK, F-F-FMK, FF-FMK and Z-FF-FMK) were at the concentrations of 66.67, 22.22, 7.41, 2.47, 0.82, 0.27, 0.091, 0.03, 0.01, 0.0034 and 0 μM, respectively, the test compounds were at the concentrations of 1000, 333.3, 111.1, 37, 12.3, 4.1, 1.4, 0.46, 0.15, 0.05 and 0 μM, respectively, and the final concentration of DMSO was 10%.
2.1.3.4 Cathepsin S: Cathepsin S substrate (90 μl) was added to Cathepsin S buffer (1710 μl), and mixed well, to prepare Cathepsin S substrate solution with a volume of 1.8 ml, which was placed on ice for further use.
(§3) Method for screening cathepsin inhibitors: the cathepsin solution (prepared in Item 2.1.1) was added to a 384-well plate (ProxiPlate-384 Plus, Perkinelmer) at 10 μl/well, and centrifuged at 1000 rpm for Imin; the compound solution (prepared in Item 2.1.2) was then added at 2 μl/well, and every concentration was repeated in two wells; the final concentrations of the test compounds were 100, 33.3, 11.1, 3.7, 1.23, 0.41, 0.14, 0.046, 0.015, 0.005 and 0 μM, respectively, wherein the final concentration of DMSO was 1%; after centrifugation at 1000 rpm for 1 min, the plate was put in a 25° C. incubator for 15 min; the cathepsin substrate solution was then added at 8 µl/well, and centrifuged at 1000 rpm for 1 min; and finally, the fluorescence signal was read in Enspire, wherein the exciting light was at a wavelength of 400 nm, the emitting light was at a wavelength of 505 nm, and continuous reading was performed at 37° C. for 120 min.
(§4) Data analysis: the slope (S) for all the samples was calculated by ΔRFU(RFU2−RFU1) and time ΔT(T2−T1), including negative control (Enzyme Control, EC) and positive control (Inhibitor Control, IC: 10 μM (FF-FMK, F-F-FMK, FF-FMK and Z-FF-FMK), and the calculation formula was as followed: Relative inhibition rate %=(SEC−SS)/(SEC−SIC)*100. The IC50 for each compound was obtained by means of fitting by software GraphPad Prism 5.0.

Cathepsin K = target: T2, Cathepsin K (Homo sapiens, UniProt P43235); test: IC50 determination against Cathepsin K (Biovision kit K150-100); conditions: CTSK
T2 construct: purchased Biovision K150-100
T2 sequence (P43235 115-329): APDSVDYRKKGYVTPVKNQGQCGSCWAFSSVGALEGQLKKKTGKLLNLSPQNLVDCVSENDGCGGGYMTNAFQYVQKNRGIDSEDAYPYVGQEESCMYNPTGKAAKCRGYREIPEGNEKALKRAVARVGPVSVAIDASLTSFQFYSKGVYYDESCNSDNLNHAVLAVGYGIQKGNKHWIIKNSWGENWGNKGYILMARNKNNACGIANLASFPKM
Protocol: as §1
IC50 of compounds against Cathepsin K was determined by using Cathepsin K Inhibitor Screening Kit (Product No. K150-100) from Biovision Company;
2.1.1.1 Preparation of Cathepsin K solution: Cathepsin K enzyme (23 μl) and Cathepsin K reagent (46 μl) were added to Cathepsin K buffer (2231 μl), and mixed well, to prepare Cathepsin K enzyme solution with a volume of 2.3 ml, which was placed on ice for further use.
as §2
2.1.3.1 Cathepsin K: Cathepsin K substrate (90 μl) was added to Cathepsin K buffer (1710 μl), and mixed well, to prepare Cathepsin K substrate solution with a volume of 1.8 ml, which was placed on ice for further use.
as §3, §4

Cathepsin L = target: T3, Cathepsin L (Homo sapiens, UniProt P07711); test: IC50 determination against Cathepsin L (Biovision kit K161-100); conditions: CTSL
T3 construct: purchased Biovision K161-100
Protocol: as §1
IC50 of compounds against Cathepsin L was determined by using Cathepsin L Inhibitor Screening Kit (Product No. K161-100) from Biovision Company;
2.1.1.3 Preparation of Cathepsin L solution: Cathepsin L reagent (3 μl) was added to Cathepsin L enzyme (3 μl), mixed well, and on standing for 1 h, to get 1 mU/μl Cathepsin L enzyme solution. Cathepsin L buffer (24 μl) was added to 1 mU/μl cathepsin L enzyme solution (6 μl), to get 0.2 mU/μl Cathepsin L enzyme solution. 0.2 mU/μl cathepsin L enzyme (23 μl), and DTT (46 μl) were added to Cathepsin L buffer (2231 μl), and mixed well, to prepare Cathepsin L enzyme solution with a volume of 2.3 ml, which was placed on ice for further use.
as §2
2.1.3.3 Cathepsin L: Cathepsin L substrate (45 μl) was added to Cathepsin L buffer (1755 μl), and mixed well, to prepare Cathepsin L substrate solution with a volume of 1.8 ml, which was placed on ice for further use.
as §3, §4

[1] = Exp-1, read-out: IC50 (nM) Exp-1
[2] = Exp-2, read-out: IC50 (nM) Exp-2
[3] = average of Exp-1 and Exp-2, read-out: Ave of IC50

T3 sequence (P07711 114-333): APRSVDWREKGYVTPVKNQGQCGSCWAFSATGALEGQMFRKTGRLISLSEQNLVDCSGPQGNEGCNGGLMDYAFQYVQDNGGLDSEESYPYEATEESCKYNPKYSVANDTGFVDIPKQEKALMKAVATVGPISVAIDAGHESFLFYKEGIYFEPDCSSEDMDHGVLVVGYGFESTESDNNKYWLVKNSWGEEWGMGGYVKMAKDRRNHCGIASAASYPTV
T1 sequence (P25774 115-331): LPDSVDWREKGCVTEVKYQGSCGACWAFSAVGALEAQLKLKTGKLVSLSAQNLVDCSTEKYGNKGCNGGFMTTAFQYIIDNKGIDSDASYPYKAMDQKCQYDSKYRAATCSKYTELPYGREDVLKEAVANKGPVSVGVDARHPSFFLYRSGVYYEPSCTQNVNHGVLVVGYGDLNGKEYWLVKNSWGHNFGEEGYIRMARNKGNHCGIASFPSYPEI

IC50 (Cathepsin S; [1]) [nM] | IC50 (Cathepsin S; [2]) [nM] | IC50 (Cathepsin S; [3]) [nM] | IC50 (Cathepsin K; [1]) [nM] | IC50 (Cathepsin K; [2]) [nM] | IC50 (Cathepsin K; [3]) [nM] | IC50 (Cathepsin L; [1]) [nM] | IC50 (Cathepsin L; [2]) [nM] | IC50 (Cathepsin L; [3]) [nM] | SMILES
10600 | 9450 | 10000 | 2950 | 1500 | 2220 | 3610 | 4450 | 4030 | CCOC(=O)[C@H]1O[C@@H]1C(=O)N[C@@H](CCSC)C(=O)NCCCc1ccccc1 [Compound 8, (2s, 3s)-2-ethoxycarbonyl-3-[2-[(s)-4-methylthio-1-carbonyl-1-(3-phenylpropylamino)butane]formylamino]epoxysuccinic acid]
1900 | 957 | 1430 | 180 | 148 | 164 | 5880 | 6630 | 6250 | CCOC(=O)[C@H]1O[C@@H]1C(=O)N[C@@H](CCSC)C(=O)N1CCC(c2ccccc2)CC1 [Compound 13, (2s, 3s)-2-ethoxycarbonyl-3-[2-[(s)-4-methylthio-1-carbonyl-1-(phenylpiperidinyl)butane]formylamino]epoxysuccinic acid]
834 | 1510 | 1170 | 704 | 606 | 655 | 4160 | 4610 | 4390 | CCOC(=O)[C@H]1O[C@@H]1C(=O)N[C@@H](CCSC)C(=O)NCCCCc1ccccc1 [Compound 40, (2s, 3s)-2-ethoxycarbonyl-3-[2-[(s)-4-methylthio-1-carbonyl-1-(4-phenylbutylamino)butane]formylamino]epoxysuccinic acid]

Second part, the compound before the results:

SMILES | IC50 (Cathepsin S; [1]) [nM] | IC50 (Cathepsin S; [2]) [nM] | IC50 (Cathepsin S; [3]) [nM] | IC50 (Cathepsin K; [1]) [nM] | IC50 (Cathepsin K; [2]) [nM] | IC50 (Cathepsin K; [3]) [nM] | IC50 (Cathepsin L; [1]) [nM] | IC50 (Cathepsin L; [2]) [nM] | IC50 (Cathepsin L; [3]) [nM]
CCCCCCNC(=O)[C@H](CCSC)NC(=O)[C@H]1O[C@@H]1C(=O)OCC [Compound 5, (2s, 3s)-2-ethoxycarbonyl-3-[2-[(s)-4-methylthio-1-carbonyl-1-(hexylamino)butane]formylamino]epoxysuccinic acid] | 4080 | 4140 | 4110 | 1680 | 1320 | 1500 | 2270 | 2330 | 2300
CCOC(=O)[C@H]1O[C@@H]1C(=O)N[C@@H](CCSC)C(=O)NCCc1cccc(F)c1 [Compound 34, (2s, 3s)-2-ethoxycarbonyl-3-[2-[(s)-4-methylthio-1-carbonyl-1-(3-fluorophenylethylamino)butane]formylamino]epoxysuccinic acid] | 1600 | 1660 | 1630 | 586 | 448 | 517 | 338 | 382 | 360
CCOC(=O)[C@H]1O[C@@H]1C(=O)N[C@@H](CCSC)C(=O)NC(CC)CC [Compound 39, (2s, 3s)-2-ethoxycarbonyl-3-[2-[(s)-4-methylthio-1-carbonyl-1-(1-ethylpropylamino)butane]formylamino]epoxysuccinic acid] | 5110 | 8750 | 6930 | 1680 | 1610 | 1650 | 9250 | 9950 | 9600
CCOC(=O)[C@H]1O[C@@H]1C(=O)N[C@@H](CC(C)C)C(=O)NCCC(C)C [zxy-37, E64d, reference compound] | 753 | 571 | 662 | 488 | 465 | 477 | 171 | 180 | 175
